The conditions of data set [1]: Table S2; ref supplementary refs 9-18, per drug; cited from earlier work.
The conditions of data set [2]: cited from earlier work.
For data set [3] the following is noted: cited from earlier work; for Proposed target for TDM, Cmin: Table S1, plasma trough level, ref supplementary refs 1-11, per drug; for Target value of residual plasma concentration defining 'optimal concentration': recommended for TDM.
Data set [4] is described as follows: Residual plasma concentration of kinase inhibitors by UPLC-MS/MS in NSCLC patients, classed optimal or suboptimal. As for the experimental part: Patients with advanced NSCLC harboring oncogenic drivers, such as an EGFR-mutation, BRAF^V600E-mutation, ALK-fusion, or ROS1-fusion, treated with KI therapy for at least three months were eligible. […] KI plasma concentrations were evaluated in blood samples collected during therapy, and at the time of clinical response or relapse. Chronic plasma exposure was defined as at least three months of KI therapy. Clinical and pathological data were extracted from electronic medical records. Radiological assessments were performed every 8 or 12 weeks per Response Evaluation Criteria in Solid Tumors (RECIST) v1.1 and per the treating physician’s discretion.
Residual plasma concentrations of drugs were measured in blood samples using ultra-performance liquid chromatography coupled with tandem mass spectrometry validated methods. A residual estimate based on pharmacokinetic and population pharmacokinetic analysis parameters (Table S2) was made for samples not collected at the time of the residual sampling.
Precise measurement of trough concentrations is challenging in routine practice, due to the constraints of the logistics of blood collection at a precise time and the fact that the timing of administration varies from patient to patient. We defined three situations according to the dosing time with respect to the last dose: Optimal, evaluable, and non-interpretable.
• Optimal: The optimal concentration corresponds to the true residual plasma concentration at a steady state, in the blood collection performed immediately before the next administration. • Evaluable: The residual plasma concentration is estimated by an extrapolation method from known pharmacokinetic parameters (distribution volume, half-life, clearance) and from data obtained in population pharmacokinetic models. This estimate of standard trough concentration (Cmin, std) is only possible when blood samples were collected at steady state or during the terminal elimination phase of the drug, since in this phase, the elimination rate is linear. • - C (min, std) = C(t) * 0.5 ^ (Delta (t)/t1/2) • - C (min, std) = C(t) * exp (k(e) x Delta (t))
• 3. Not interpretable: Extrapolation is not feasible for samples taken during the plasma peak period.

The conditions of data set [5]: studies of KI concentrations for other cancers; cited from earlier work.
Details of data set [6]: method as in PMID 22038662. The following applies: hepatocellular carcinoma patients, plasma measured every 15 days; cited from earlier work.
[7] abbreviates: samples after at least three months of KI, % of the optimal group (n = 25).
The mark [8] stands for this setting: samples after at least three months of KI, % of the suboptimal group (n = 26).

The source of these data is PMC7764991, “Chronic Plasma Exposure to Kinase Inhibitors in Patients with Oncogene-Addicted Non-Small Cell Lung Cancer” (Cancers, 2020).

What is called Tmax is the time from dosing to the highest level.

On to `CC(C)(C)c1nc(-c2cccc(NS(=O)(=O)c3c(F)cccc3F)c2F)c(-c2ccnc(N)n2)s1` [Dabrafenib, dabrafenib], for which, in data set [1], the Distribution volume is recorded as 46 L; the Half-life is recorded as 8 h; the Hepatic elimination was 73%; the Metabolic pathway result is “CYP2C8, 3A4”. Moreover, the “Interaction with proton pump inhibitors” value in data set [2] is “not relevant”. For the same molecule, in data set [3], the “Proposed target for TDM, Cmin” value is not below 96.1 ng/mL and the “Target value of residual plasma concentration defining 'optimal concentration'” value is listed as more than 96.1 ng/mL. Also, the “Samples with optimal concentration” value in data set [4] (setting [7]) is reported as 2 (8%) No. (%). Moreover, the “Samples with suboptimal concentration” value in data set [4] (setting [8]) is reported as 3 (11.5%) No. (%).

Regarding `C#Cc1cccc(Nc2ncnc3cc(OCCOC)c(OCCOC)cc23)c1` [Erlotinib, erlotinib], in data set [1], the Bioavailability is 59%, the Distribution volume is listed as 232 L, the Half-life was 36.2 h and the Hepatic elimination is 90%. Moreover, the “Effect of cigarette smoke on plasmatic exposure” value in data set [2] (cigarette smoke induces CYP1A1) was “significantly decreases”. In addition, the “Interaction with proton pump inhibitors” value in data set [2] is “decreasing their bioavailability and the plasmatic exposure”. Also, in data set [5], the Suboptimal concentration rate is recorded as 11%. Besides, in data set [3], the “Proposed target for TDM, Cmin” value was not below 500 ng/mL and the “Target value of residual plasma concentration defining 'optimal concentration'” value was more than 500 ng/mL. In data set [4] (human, in vivo), the “Samples with optimal concentration” value is on record as 7 (28%) No. (%) and the “Samples with suboptimal concentration” value was 6 (23%) No. (%).

For `CCN(CC)CCNC(=O)c1c(C)[nH]c(/C=C2\C(=O)Nc3ccc(F)cc32)c1C` [sunitinib], the Suboptimal concentration rate in data set [5] is on record as 49%.

Regarding `COc1cc2ncnc(Nc3ccc(F)c(Cl)c3)c2cc1OCCCN1CCOCC1` [Gefitinib, gefitinib], in data set [1], the Bioavailability is listed as 59%, the Half-life is listed as 41 h and the Tmax is 3 to 7 h. Also, in data set [3], the “Proposed target for TDM, Cmin” value is not below 200 ng/mL and the “Target value of residual plasma concentration defining 'optimal concentration'” value was more than 200 ng/mL. Moreover, in data set [4] (human, in vivo), the “Samples with optimal concentration” value is listed as 8 (32%) No. (%) and the “Samples with suboptimal concentration” value is 3 (11.5%) No. (%).

`CNC(=O)c1cc(Oc2ccc(NC(=O)Nc3ccc(Cl)c(C(F)(F)F)c3)cc2)ccn1` [sorafenib]: the “Exposure after three months of treatment compared with one month” value in data set [6] is reported as “lower than after one month of treatment”.

Take `C[C@@H](Oc1cc(-c2cnn(C3CCNCC3)c2)cnc1N)c1c(Cl)ccc(F)c1Cl` [Crizotinib, crizotinib]: in data set [1], the Bioavailability is listed as 43%, the Distribution volume is given as 1772 L, the Hepatic elimination is 63% and the Metabolic pathway entry was “CYP3A4”. Besides, the Tmax in data set [1] was 4 to 6 h. For the same molecule, the “Interaction with proton pump inhibitors” value in data set [2] is given as “not relevant”. Besides, in data set [3], the “Proposed target for TDM, Cmin” value was not below 235 ng/mL and the “Target value of residual plasma concentration defining 'optimal concentration'” value is listed as more than 235 ng/mL. The “Samples with optimal concentration” value in data set [4] (setting [7]) is on record as 2 (8%) No. (%). Also, the “Samples with suboptimal concentration” value in data set [4] (setting [8]) is 5 (19.5%) No. (%).

On to `C=CC(=O)Nc1cc(Nc2nccc(-c3cn(C)c4ccccc34)n2)c(OC)cc1N(C)CCN(C)C` [Osimertinib, osimertinib], for which, in data set [1], the Bioavailability is on record as 70%, the Half-life is recorded as 44 h and the Tmax is reported as 6 h. Besides, in data set [3], the “Proposed target for TDM, Cmin” value is not below 166 ng/mL and the “Target value of residual plasma concentration defining 'optimal concentration'” value is recorded as more than 166 ng/mL. In data set [4] (human, in vivo), the “Samples with optimal concentration” value was 4 (16%) No. (%) and the “Samples with suboptimal concentration” value is 6 (23%) No. (%).

With `CC(=O)Nc1cccc(-n2c(=O)n(C3CC3)c(=O)c3c(Nc4ccc(I)cc4F)n(C)c(=O)c(C)c32)c1` [Trametinib, trametinib], in data set [1], the Half-life is 127 h, the Hepatic elimination was 80% and the Metabolic pathway entry is listed as “Deacetylation”. For the same molecule, the “Interaction with proton pump inhibitors” value in data set [2] is “not relevant”. Further, in data set [3], the “Proposed target for TDM, Cmin” value is not below 10.6 ng/mL and the “Target value of residual plasma concentration defining 'optimal concentration'” value is recorded as more than 10.6 ng/mL. Also, in data set [4] (human, in vivo), the “Samples with optimal concentration” value was 2 (8%) No. (%) and the “Samples with suboptimal concentration” value is on record as 3 (11.5%) No. (%).
